# Target: T1, Human CXCR4 transfected HEK293 cells (Homo sapiens, UniProt P61073)
# T1 construct: expressed in transfected cells; host or cells: HEK293
# Assay: CXCR4 functional calcium assay (calcium flux FLIPR, antagonism of SDF1 response)
# Assay type: cell-based
# Conditions: CXCR4 functional activity, antagonism of SDF1 (EC50 concentration), read-out: CXCR4 fKi
# How it was run: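 HEK293 cells stably transfected with human CXCR4 were loaded with 2 μM Fluo-4 AM in HBSS containing 2.5 mM probenecid, 0.1% BSA and 10 mM HEPES at pH 7.4 and 37° C. Compound was added first, then SDF1 at its EC50 concentration, and intracellular calcium fluorescence was followed on a FLIPR. Antagonist dose-response curves were fitted.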
# T1 sequence (P61073 whole entry): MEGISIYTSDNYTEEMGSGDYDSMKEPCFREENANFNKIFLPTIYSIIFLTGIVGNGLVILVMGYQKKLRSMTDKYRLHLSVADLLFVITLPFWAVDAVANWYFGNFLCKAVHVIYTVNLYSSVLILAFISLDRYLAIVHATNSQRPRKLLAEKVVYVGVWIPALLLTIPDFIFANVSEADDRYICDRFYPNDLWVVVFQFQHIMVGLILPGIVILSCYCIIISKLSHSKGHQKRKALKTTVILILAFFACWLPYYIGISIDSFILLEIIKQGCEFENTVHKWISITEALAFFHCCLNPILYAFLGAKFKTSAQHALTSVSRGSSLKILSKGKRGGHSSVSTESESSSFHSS
row,SMILES,Ki
1,"CCCc1nc(-c2cccc(N3CCCN(C4CCN([C@H](C)CC)CC4)CC3)n2)no1 [Example 154, 1-{1-[(2R)-Butan-2-yl]piperidin-4-yl}-4-[6-(5-propyl-1,2,4-oxadiazol-3-yl)pyridin-2-yl]-1,4-diazepane]",100 to 500 nM
2,"CC(C)N1CCC(CN[C@@H]2CCN(c3cccc(-c4ncc(C5CC5)[nH]4)n3)C2)CC1 [Example 223, (3R)-1-[6-(4-Cyclopropyl-1H-imidazol-2-yl)pyridin-2-yl]-N-{[1-(propan-2-yl)piperidin-4-yl]methyl}pyrrolidin-3-amine]",500 to 1000 nM
3,"Cc1cccc2nc(-c3cccc(N4CCCN(C5CCN(C(C)C)CC5)CC4)n3)[nH]c12 [Example 143, 7-Methyl-2-(6-{4-[1-(propan-2-yl)piperidin-4-yl]-1,4-diazepan-1-yl}pyridine-2-yl)-1H-1,3-benzodiazole]",100 to 500 nM
4,"CC(C)N1CCCC(N2CCC(Oc3cccc(C(=O)Nc4ccncc4)n3)CC2)CC1 (stereo not shown) [Example 221, 6-({1-[1-(Propan-2-yl)azepan-4-yl]piperidin-4-yl}oxy)-N-(pyridin-4-yl)pyridine-2-carboxamide]",100 to 500 nM
5,"O=C(NCC1CC1)c1cccc(N2CCCN(C3CCN(C4CCOC4)CC3)CC2)n1 (stereo not shown) [Example 128, N-(Cyclopropylmethyl)-6-{4-[1-(oxolan-3-yl)piperidin-4-yl]-1,4-diazepan-1-yl}pyridine-2-carboxamide]",100 to 500 nM
6,"CC(C)N1CC[C@@H](N2CCCN(c3cccc(C(=O)NCC4CC4)n3)CC2)[C@H](O)C1 [Example 216, N-(Cyclopropylmethyl)-6-{4-[(3R)-3-hydroxy-1-(propan-2-yl)piperidin-4-yl]-1,4-diazepan-1-yl}pyridine-2-carboxamide]",100 to 500 nM
7,"COCc1nc(-c2cccc(N3CCCN(C4CCN(C(C)C)CC4)CC3)n2)no1 [Example 163, 1-{6-[5-(Methoxymethyl)-1,2,4-oxadiazol-3-yl]pyridine-2-yl}-4-[1-(propan-2-yl)piperidin-4-yl]-1,4-diazepane]",100 to 500 nM
8,"Cc1cccc(N2CCCN(C3CCN(Cc4ccccc4Cl)CC3)CC2)n1 [Example 262, 1-{1-[(2-Chlorophenyl)methyl]piperidin-4-yl}-4-(6-methylpyridin-2-yl)-1,4-diazepane]",500 to 1000 nM
9,"CC(C)N1CCC(N2CC3CCC2CN(c2cccc(C(=O)Nc4ccncc4)n2)C3)CC1 (stereo not shown) [Example 197, 6-{6-[1-(Propan-2-yl)piperidin-4-yl]-3,6-diazabicyclo[3.2.2]nonan-3-yl}-N-(pyridin-4-yl)pyridine-2-carboxamide]",20 to 100 nM
10,"CC(CF)N1CCC(N2CCCN(c3cccc(C(=O)NCC4CC4)n3)CC2)CC1 (stereo not shown) [Example 67, N-(Cyclopropylmethyl)-6-{4-[1-(1-fluoropropan-2-yl)piperidin-4-yl]-1,4-diazepan-1-yl}pyridine-2-carboxamide]",500 to 1000 nM
11,"Cc1nc(-c2cccc(N3CCN(C4CCCN(C(C)C)CC4)CC3)n2)[nH]c1C1CC1 (stereo not shown) [Example 243, 4-{4-[6-(5-Cyclopropyl-4-methyl-1H-imidazol-2-yl)pyridin-2-yl]piperazin-1-yl}-1-(propan-2-yl)azepane]",100 to 500 nM
12,"C[C@H](N1CCC(N2CCCN(c3cccc(C(=O)NCC4CC4)n3)CC2)CC1)C(F)(F)F [Example 69, N-(Cyclopropylmethyl)-6-(4-{1-[(2S)-1,1,1-trifluoropropan-2-yl]piperidin-4-yl}-1,4-diazepan-1-yl)pyridine-2-carboxamide]",100 to 500 nM
13,"CC(C)CCNC(=O)c1cccc(N2CCCN(C3CCN(Cc4ccccc4Cl)CC3)CC2)n1 [Example 49, 6-(4-{1-[(2-Chlorophenyl)methyl]piperidin-4-yl}-1,4-diazepan-1-yl)-N-(3-methylbutyl)pyridine-2-carboxamide]",100 to 500 nM
14,"CC(C)CN(C)C(=O)c1cccc(N2CCCN(C3CCN(C(C)C)CC3)CC2)n1 [Example 17, N-Methyl-N-(2-methylpropyl)-6-{4-[1-(propan-2-yl)piperidin-4-yl]-1,4-diazepan-1-yl}pyridine-2-carboxamide]",500 to 1000 nM
15,"CCCN1CCC(N2CCCN(c3cccc(C(=O)NCC4CC4)n3)CC2)CC1 [Example 61, N-(Cyclopropylmethyl)-6-[4-(1-propylpiperidin-4-yl)-1,4-diazepan-1-yl]pyridine-2-carboxamide]",100 to 500 nM
16,"COc1ccc(C(=O)NCC2CC2)nc1N1CCCN(C2CCN(Cc3ccccc3Cl)CC2)CC1 [Example 270, 6-(4-{1-[(2-Chlorophenyl)methyl]piperidin-4-yl}-1,4-diazepan-1-yl)-N-(cyclopropylmethyl)-5-methoxypyridine-2-carboxamide]",100 to 500 nM
17,"Cc1cnc(-c2cccc(N3CCCN(C4CCN(C(C)C)CC4)CC3)n2)[nH]1 [Example 107, 1-[6-(4-Methyl-1H-imidazol-2-yl)pyridine-2-yl]-4-[1-(propan-2-yl)piperidin-4-yl]-1,4-diazepane]",20 to 100 nM
18,"CC(C)N1CCC(N2CCCN(c3cccc(C(=O)NCC4CC4)n3)CC2C)CC1 (stereo not shown) [Example 194, N-(Cyclopropylmethyl)-6-{3-methyl-4-[1-(propan-2-yl)piperidin-4-yl]-1,4-diazepan-1-yl}pyridine-2-carboxamide]",20 to 100 nM
19,"O=C(NCC1CC1)c1csc(N2CCCN(C3CCN(Cc4ccccc4Cl)CC3)CC2)n1 [Example 265, 2-(4-{1-[(2-Chlorophenyl)methyl]piperidin-4-yl}-1,4-diazepan-1-yl)-N-(cyclopropylmethyl)-1,3-thiazole-4-carboxamide]",500 to 1000 nM
20,"Cc1ccccc1CN1CCC(N2CCCN(c3cccc(C(=O)NCC4CC4)n3)CC2)CC1 [Example 131, N-(Cyclopropylmethyl)-6-(4-{1-[(2-methylphenyl)methyl]piperidin-4-yl}-1,4-diazepan-1-yl)pyridine-2-carboxamide]",100 to 500 nM
21,"CC(C)N1CCC(N2CCCN(c3cccc(-c4noc(CC(C)(C)C)n4)n3)CC2)CC1 [Example 160, 1-{6-[5-(2,2-Dimethylpropyl)-1,2,4-oxadiazol-3-yl]pyridine-2-yl}-4-[1-(propan-2-yl)piperidin-4-yl]-1,4-diazepane]",100 to 500 nM
22,"CC(C)N1CCC(N2CCCN(c3cccc(C(=O)N[C@@H]4CCOC4)n3)CC2)CC1 [Example 19, N-[(3R)-Oxolan-3-yl]-6-{4-[1-(propan-2-yl)piperidin-4-yl]-1,4-diazepan-1-yl}pyridine-2-carboxamide]",100 to 500 nM

# Next, values leading:
row,Ki,SMILES
1,20 to 100 nM,"CC(C)N1CCO[C@H](CN2CCCN(c3cccc(C(=O)Nc4ccncc4)n3)CC2)C1 [Example 244, 6-(4-{[(2R)-4-(Propan-2-yl)morpholin-2-yl]methyl}-1,4-diazepan-1-yl)-N-(pyridin-4-yl)pyridine-2-carboxamide]"
2,20 to 100 nM,"CC(C)N1CCC(N2CCN(c3cccc(C(=O)NCC4CC4)n3)CCC2C)CC1 (stereo not shown) [Example 184, N-(Cyclopropylmethyl)-6-{5-methyl-4-[1-(propan-2-yl)piperidin-4-yl]-1,4-diazepan-1-yl}pyridine-2-carboxamide]"
3,< 20 nM,"[2H]C1([2H])CCN(c2cccc(C(=O)Nc3ccncc3)n2)CC(C)N1C1CCN(Cc2ccccc2Cl)CC1 (stereo not shown) [Example 206, 6-(4-{1-[(2-Chlorophenyl)methyl]piperidin-4-yl}-5,5-dihydrogenio-3-methyl-1,4-diazepan-1-yl)-N-(pyridin-4-yl)pyridine-2-carboxamide]"
4,< 20 nM,"C[C@H](N1CCC(N2CCCN(c3cccc(C(=O)Nc4ccncc4)n3)CC2)CC1)C(F)(F)F [Example 82, N-(Pyridin-4-yl)-6-(4-{1-[(2S)-1,1,1-trifluoropropan-2-yl]piperidin-4-yl}-1,4-diazepan-1-yl)pyridine-2-carboxamide]"
5,< 20 nM,"CC(C)N1CCC(N2CCCN(c3cccc(C(=O)Nc4ccccc4)n3)CC2)CC1 [Example 23, N-Phenyl-6-{4-[1-(propan-2-yl)piperidin-4-yl]-1,4-diazepan-1-yl}pyridine-2-carboxamide]"
6,20 to 100 nM,"CC(CC(F)(F)F)N1CCC(N2CCCN(c3cccc(C(=O)NCC4CC4)n3)CC2)CC1 (stereo not shown) [Example 70, N-(Cyclopropylmethyl)-6-{4-[1-(4,4,4-trifluorobutan-2-yl)piperidin-4-yl]-1,4-diazepan-1-yl}pyridine-2-carboxamide]"
7,< 20 nM,"[2H]C1([2H])CCN(c2cccc(C(=O)Nc3ccncc3)n2)CCN1C1CCN(C2CCCC2)CC1 [Example 191, 6-[4-(1-Cyclopentylpiperidin-4-yl)-5,5-dihydrogenio-1,4-diazepan-1-yl]-N-(pyridin-4-yl)pyridine-2-carboxamide]"
8,< 20 nM,"Cc1nc(-c2cccc(N3CCCN(C4CCN(C(C)C)CC4)CC3)n2)[nH]c1C1CC1 [Example 121, 1-[6-(4-Cyclopropyl-5-methyl-1H-imidazol-2-yl)pyridine-2-yl]-4-[1-(propan-2-yl)piperidin-4-yl]-1,4-diazepane]"
9,20 to 100 nM,"C[C@H](N1CCC(N2CCCN(c3cccc(C(=O)NCc4cccnc4)n3)CC2)CC1)C(F)(F)F [Example 89, N-(Pyridin-3-ylmethyl)-6-(4-{1-[(2S)-1,1,1-trifluoropropan-2-yl]piperidin-4-yl}-1,4-diazepan-1-yl)pyridine-2-carboxamide]"
10,< 20 nM,"[2H]C1([2H])CCN(c2cccc(C(=O)Nc3ccncc3)n2)CC(C)N1C1CCN(Cc2ccc(F)cc2Cl)CC1 (stereo not shown) [Example 207, 6-(4-{1-[(2-Chloro-4-fluorophenyl)methyl]piperidin-4-yl}-5,5-dihydrogenio-3-methyl-1,4-diazepan-1-yl)-N-(pyridin-4-yl)pyridine-2-carboxamide]"
11,20 to 100 nM,"CC(CC(F)(F)F)N1CCC(N2CCCN(c3cccc(C(=O)NCc4cccnc4)n3)CC2)CC1 (stereo not shown) [Example 90, N-(Pyridin-3-ylmethyl)-6-{4-[1-(4,4,4-trifluorobutan-2-yl)piperidin-4-yl]-1,4-diazepan-1-yl}pyridine-2-carboxamide]"
12,20 to 100 nM,"CC1CN(c2cccc(C(=O)Nc3ccncc3)n2)CCN(C2CCN(C(C)C)CC2)C1 (stereo not shown) [Example 182, 6-{6-Methyl-4-[1-(propan-2-yl)piperidin-4-yl]-1,4-diazepan-1-yl}-N-(pyridin-4-yl)pyridine-2-carboxamide]"
